Experimental data published in patent US20250099420A1, “SMALL MOLECULE MODULATORS OF GPR139 COMPLEX” (University of Florida Research Foundation, Incorporated, priority 2022, published 2025).
Where two headings read alike, the source gives them in different places.

Key:
parental HEK cells = experiment: HEK parental Agonist Counterscreen Assay (non-transfected cells); format: cell-based; conditions: for Averaged Max % Response (±St. Dev.): activity relative to known control
Source text: The high control for the agonist counterscreen was Forskolin not acetylcholine.

GPR139 = target: T1, GPR139 (Homo sapiens, UniProt Q6DWJ6); experiment: GPR139 Agonist titration / agonist counterscreen assay (calcium detection, HEK-GPR139 cells); format: cell-based; set-up: expressed in transfected cells; host or cells: HEK Aequorin cells, Maxcyte transient transfection; conditions: GPR139 Agonist Activity; for Averaged Max % Response (±St. Dev.): activity relative to known control; for EC50: read-out: EC50
T1 sequence (Q6DWJ6 1-353): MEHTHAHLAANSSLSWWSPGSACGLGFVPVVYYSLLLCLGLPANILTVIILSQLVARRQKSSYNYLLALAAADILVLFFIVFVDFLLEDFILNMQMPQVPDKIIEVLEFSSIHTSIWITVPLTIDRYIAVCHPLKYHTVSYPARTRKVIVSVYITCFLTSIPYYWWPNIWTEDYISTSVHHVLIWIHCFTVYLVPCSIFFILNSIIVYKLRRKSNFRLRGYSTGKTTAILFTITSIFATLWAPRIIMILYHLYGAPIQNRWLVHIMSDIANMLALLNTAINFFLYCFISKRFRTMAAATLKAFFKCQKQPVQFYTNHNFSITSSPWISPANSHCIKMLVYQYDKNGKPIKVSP
Experimental: GPR activity was assessed using a calcium detection assay. […] Negative control samples were treated with DMSO. […] Intracellular calcium was measured using Calcium 5.

[1] = Homo sapiens, HEK293, HEK Agonist Activity section of Table 4 (parental HEK counterscreen)
[2] = values printed in E-notation without unit
[3] = HEK Agonist Activity section of Table 4 (parental HEK counterscreen)
[4] = Homo sapiens, HEK293, HEK Agonist Activity, parental non-transfected HEK cells

Lipophilic Efficiency (logD) (parental HEK cells; HEK Agonist Activity section) | Lipophilic Efficiency (logP) (parental HEK cells; HEK Agonist Activity section) | Averaged Max % Response (±St. Dev.) (GPR139) | Lipophilic Efficiency (logD) (GPR139; based on logD) | Lipophilic Efficiency (logP) (GPR139; based on logP) | Hill Slope (GPR139; fitted dose-response curve) | Efficiency Ligand (GPR139; ligand efficiency) | EC50 (GPR139; [2]) | Compound | Averaged Max % Response (±St. Dev.) (parental HEK cells; HEK Agonist Activity section) | EC50 (parental HEK cells; [1]) | EC50 (parental HEK cells; [3]) | further results
1.09 | 1.08 | 96.54 ± 7.56% | 3.35 | 3.34 | 0.79 | 0.38 | 78.1 nM | O=C(CN1CCCc2ccccc21)NNC(=O)Nc1ccc(Cl)c(Cl)c1 [SR-01000029575] | 7.49 ± 5.72% | > 14300 nM |  | 
1.94 | 1.93 | 93.20 ± 6.78% | 3.92 | 3.92 | 0.91 | 0.37 | 145 nM | Cc1cc(C)c2c(CC(=O)NNC(=O)COc3ccccc3)coc2c1 [SR-01000301649] | 14.38 ± 10.96% |  | > 14100 nM | 
1.70 | 1.70 | 93.85 ± 32.13% |  |  |  |  |  | O=c1c2c([nH]c3nc(NCc4ccccc4Cl)nn13)CCC2 [SR-01000153956] | 21.15 ± 4.99% | > 14100 nM |  | Efficiency Ligand (GPR139): 0.38; Hill Slope (GPR139): 1.89; Lipophilic Efficiency (logD) (GPR139): 2.80; Lipophilic Efficiency (logP) (GPR139): 2.80; EC50 (GPR139; HEK-GPR139 cells): 1100 nM
 |  | 146.26 ± 17.42% | 4.56 | 4.52 | 0.21 | 0.40 |  | COc1cc(OC)cc(C(=O)NNC(=O)C(C)Oc2ccc(Cl)cc2Cl)c1 (stereo not shown) [SR-01000358013] |  |  |  | Lipophilic Efficiency (logD) (parental HEK cells; HEK Agonist Activity): 1.68; Lipophilic Efficiency (logP) (parental HEK cells; HEK Agonist Activity): 1.64; Averaged Max % Response (±St. Dev.) (parental HEK cells; HEK Agonist Activity): 22.28 ± 14.14%; EC50 (parental HEK cells; [4]): > 14100 nM
−0.16 | −0.16 | 96.91 ± 19.53% | 1.98 | 1.98 | 0.52 | 0.28 | 85.3 nM | Cc1ccccc1NC(=O)CSC1=C(C#N)C(c2ccccc2C(F)(F)F)C2=C(CCCC2=O)N1 (stereo not shown) [SR-01000484454] | 27.15 ± 8.69% |  | > 11900 nM | 
 |  | 107.86 ± 14.78% | 5.70 | 5.70 | 0.48 | 0.38 | 25.6 nM | COc1ccc(C2(C)NC(=O)C(CC(=O)NCCc3ccccc3)C2=O)cc1 (stereo not shown) [SR-01000918721] |  |  |  | Lipophilic Efficiency (logD) (parental HEK cells; HEK Agonist Activity): 2.96; Lipophilic Efficiency (logP) (parental HEK cells; HEK Agonist Activity): 2.96; Averaged Max % Response (±St. Dev.) (parental HEK cells; HEK Agonist Activity): 9.27 ± 15.15%; EC50 (parental HEK cells; [4]): > 14100 nM
2.04 | 2.04 | 100.11 ± 8.55% |  |  |  |  |  | CSc1ccc(CCNC(=O)Cn2ncc3c(=O)oc4ccccc4c32)cc1 [SR-01000105999] | 4.15 ± 6.01% | > 14100 nM |  | Efficiency Ligand (GPR139): 0.32; Hill Slope (GPR139): 1.37; Lipophilic Efficiency (logD) (GPR139): 3.64; Lipophilic Efficiency (logP) (GPR139): 3.64; EC50 (GPR139; HEK-GPR139 cells): 355 nM
0.84 | 0.84 | 186.79 ± 37.86% | 2.75 | 2.75 |  | 0.39 | > 174 nM | Cc1ccc(SCC(=O)Nc2nnc(-c3ccc(Cl)cc3)o2)cc1 [SR-01000913573] | 8.58 ± 4.44% |  | > 14100 nM | 
2.07 | 2.07 | 111.20 ± 10.15% | 4.02 | 4.02 | 0.36 | 0.38 |  | C=C(CC1N=CC2=C1c1ccccc1CC2)NCc1ccc(C)cc1 (stereo not shown) [SR-01000134947] | 1.42 ± 10.91% | > 14100 nM |  | 
2.56 | 2.56 | 101.79 ± 19.12% |  |  |  |  |  | O=C(CCOc1ccccc1)NCC1COc2ccccc2O1 (stereo not shown) [SR-01000479007] | 8.46 ± 4.77% |  | > 13200 nM | Efficiency Ligand (GPR139): 0.40; Hill Slope (GPR139): 1.21; Lipophilic Efficiency (logD) (GPR139): 4.24; Lipophilic Efficiency (logP) (GPR139): 4.24; EC50 (GPR139; HEK-GPR139 cells): 277 nM
2.29 | 2.29 | 84.49 ± 4.10% | 4.34 | 4.34 | 1.10 | 0.39 | 127 nM | O=C(Cn1cnc2ccccc21)NCCCn1ccc2ccccc21 [SR-01000926263] | 12.91 ± 4.81% | > 14100 nM |  | 
3.15 | 3.09 | 93.44 ± 12.43% | 4.94 | 4.88 | 1.08 | 0.34 | 229 nM | O=C(CC(C(=O)N1CCc2ccccc21)n1ccnc1)N1CCCCCC1 (stereo not shown) [SR-01000144627] | 28.51 ± 2.67% | > 14100 nM |  | 
1.08 | 1.08 | 108.92 ± 9.07% | 3.26 | 3.26 | 0.44 | 0.36 | 93.2 nM | COc1ccc(CCNC(=O)c2cccc(-c3ccc(OC)nc3)c2)cc1 [SR-01000652579] | 11.17 ± 6.82% |  | > 14200 nM | 
 |  | 93.40 ± 11.14% | 4.45 | 4.44 | 0.63 | 0.48 | 13.3 nM | Cc1cc(Cl)ccc1OC(C)C(=O)NNC(=O)c1ccccc1 (stereo not shown) [SR-01000013313] |  |  |  | Lipophilic Efficiency (logD) (parental HEK cells; HEK Agonist Activity): 1.41; Lipophilic Efficiency (logP) (parental HEK cells; HEK Agonist Activity): 1.40; Averaged Max % Response (±St. Dev.) (parental HEK cells; HEK Agonist Activity): 2.95 ± 4.76%; EC50 (parental HEK cells; [4]): > 14400 nM
0.66 | 0.66 | 116.95 ± 4.02% | 3.05 | 3.05 |  | 0.33 |  | COCCn1c(C)c(C(=O)NC(C)CCc2ccccc2)c2nc3ccccc3nc21 (stereo not shown) [SR-01000918134] | −11.92 ± 3.45% | > 14100 nM |  | 
 |  | 111.04 ± 7.77% | 5.74 | 5.74 |  | 0.43 |  | COc1ccc(C2(C)NC(=O)N(CC(=O)Nc3cc(C)ccc3C)C2=O)cc1 (stereo not shown) [SR-01000918716] |  |  |  | Hill Slope (parental HEK cells; HEK Agonist Activity): 0.85; Lipophilic Efficiency (logD) (parental HEK cells; HEK Agonist Activity): 2.34; Lipophilic Efficiency (logP) (parental HEK cells; HEK Agonist Activity): 2.34; Averaged Max % Response (±St. Dev.) (parental HEK cells; HEK Agonist Activity): 92.04 ± 16.23%; EC50 (parental HEK cells; HEK Agonist Activity, parental non-transfected HEK cells): 5500 nM
 |  | 126.19 ± 25.88% | 3.74 | 3.74 |  | 0.37 | > 6.5 nM | Cc1cc(C(=O)CCC(=O)NNC(=O)c2ccc(COc3ccccc3)cc2)c(C)o1 [SR-01000069259] |  |  |  | Lipophilic Efficiency (logD) (parental HEK cells; HEK Agonist Activity): 0.40; Lipophilic Efficiency (logP) (parental HEK cells; HEK Agonist Activity): 0.40; Averaged Max % Response (±St. Dev.) (parental HEK cells; HEK Agonist Activity): 7.00 ± 9.99%; EC50 (parental HEK cells; [4]): > 14200 nM
2.75 | 2.75 | 78.64 ± 16.53% |  |  |  |  |  | O=C(C1CC1)N1CCc2cc(S(=O)(=O)NCC3COc4ccccc4O3)ccc21 (stereo not shown) [SR-01000126429] | 25.18 ± 6.22% | > 14100 nM |  | Efficiency Ligand (GPR139): 0.29; Hill Slope (GPR139): 1.58; Lipophilic Efficiency (logD) (GPR139): 3.90; Lipophilic Efficiency (logP) (GPR139): 3.90; EC50 (GPR139; HEK-GPR139 cells): 1000 nM
1.95 | 1.95 | 86.25 ± 6.17% | 4.03 | 4.03 | 0.89 | 0.51 | 118 nM | CCOC(=O)c1ccc(CSc2nnc(N)s2)cc1 [SR-01000273754] | 2.38 ± 11.60% |  | > 14100 nM | 
1.78 | 1.78 | 80.08 ± 5.83% |  |  |  |  |  | NC1=NC(=O)/C(=C\c2ccc(Cl)cc2Cl)S1 [SR-01000310833] | 13.95 ± 0.93% |  | > 14100 nM | Efficiency Ligand (GPR139): 0.56; Hill Slope (GPR139): 0.71; Lipophilic Efficiency (logD) (GPR139): 3.32; Lipophilic Efficiency (logP) (GPR139): 3.32; EC50 (GPR139; HEK-GPR139 cells): 407 nM
